As a reminder, the Ki is the equilibrium dissociation constant of an inhibitor or competing ligand from its target.

This experiment deals with T1, Trifunctional purine biosynthetic protein adenosine-3 (Homo sapiens, UniProt P22102).
T1 sequence (P22102 whole entry): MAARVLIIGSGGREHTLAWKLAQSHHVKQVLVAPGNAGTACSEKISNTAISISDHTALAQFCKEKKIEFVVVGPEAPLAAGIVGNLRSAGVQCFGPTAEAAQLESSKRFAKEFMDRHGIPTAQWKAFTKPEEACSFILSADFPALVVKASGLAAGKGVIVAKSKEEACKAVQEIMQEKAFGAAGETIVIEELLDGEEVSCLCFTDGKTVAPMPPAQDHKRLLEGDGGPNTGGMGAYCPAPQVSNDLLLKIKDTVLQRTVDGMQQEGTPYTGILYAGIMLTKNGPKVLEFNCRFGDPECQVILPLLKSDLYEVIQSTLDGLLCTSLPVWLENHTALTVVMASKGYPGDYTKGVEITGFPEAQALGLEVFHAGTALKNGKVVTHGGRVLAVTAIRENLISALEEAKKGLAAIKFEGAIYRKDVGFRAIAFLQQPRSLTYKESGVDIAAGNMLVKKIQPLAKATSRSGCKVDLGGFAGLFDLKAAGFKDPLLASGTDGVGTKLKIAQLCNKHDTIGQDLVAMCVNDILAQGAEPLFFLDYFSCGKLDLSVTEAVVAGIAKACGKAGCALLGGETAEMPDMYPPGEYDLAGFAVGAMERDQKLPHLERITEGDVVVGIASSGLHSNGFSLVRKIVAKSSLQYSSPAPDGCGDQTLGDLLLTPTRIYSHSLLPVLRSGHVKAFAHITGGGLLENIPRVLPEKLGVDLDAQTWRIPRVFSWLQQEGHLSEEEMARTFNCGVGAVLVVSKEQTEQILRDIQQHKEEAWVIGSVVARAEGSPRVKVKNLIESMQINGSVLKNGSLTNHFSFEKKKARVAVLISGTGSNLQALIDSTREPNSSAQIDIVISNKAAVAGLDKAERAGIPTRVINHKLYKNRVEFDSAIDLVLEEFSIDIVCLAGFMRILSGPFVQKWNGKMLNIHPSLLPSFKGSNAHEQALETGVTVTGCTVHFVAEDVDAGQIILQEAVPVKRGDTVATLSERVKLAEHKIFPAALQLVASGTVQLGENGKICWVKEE
In words: GAR Transformylase Inhibition Assay. The following applies: pH 7.5. As to the method: To initiate the assay, 150 μL of 20 nM His-GARFTase or buffer was added, and the plate was shaken for 5 s. […] For each antifolate, triplicate assays were performed at 20 different drug concentrations.
The molecule `Nc1nc2[nH]c(CCCCc3ccc(C(=O)N[C@@H](CCC(=O)O)C(O)O)cc3)cc2c(=O)[nH]1` [AGF23] returned a Ki of 0.017 µM.

Turning to `Nc1nc2sc(CCCCc3ccc(C(=O)N[C@@H](CCC(=O)O)C(O)O)cc3)cc2c(=O)[nH]1` [AGF50], the Ki was 1.07 µM.

As for `Nc1nc2[nH]c(CCCCCCC(=O)N[C@H](CCC(=O)O)C(=O)O)cc2c(=O)[nH]1` [AGF145], the Ki was 0.067 µM.

On to `Nc1nc2[nH]c(CCCCCCCC(=O)N[C@@H](CCC(=O)O)C(=O)O)cc2c(=O)[nH]1`, for which the Ki came to 0.099 µM.

In turn, `Nc1nc2[nH]c(CCCCc3ccc(C(=O)N[C@@H](CCC(=O)O)C(=O)O)s3)cc2c(=O)[nH]1` [(S)-2-({5-[4-(2-Amino-4-oxo-4,7-dihydro-3H-pyrrolo[2,3-d]-pyrimidin-6-yl)-butyl]-thiophene-2-carbonyl}-amino)-pentanedioicAcid] gave a Ki of 0.022 µM.

(Values after BindingDB's records for doi:10.1021/acs.biochem.6b00412 (Duquesne University, 2016).)
